From PMC6395809 (Scientific Reports, 2019)
Like-named read-outs stand apart in the source and are kept apart here.

Assays:
[1] = test system: SKBR3 cells; experiment: Combination with Trastuzumab in SKBR3 cells (MTT); assay type: cell-based, human; conditions: SKBR3, Trastuzumab 25 μg/ml, three days
Experimental: (§1) Figure 6 Impact of 1 and 2 compounds on BT474 breast cancer cells. (A) To assess whether 1 and 2 could trigger cytotoxic effects on living cells, BT474 cells were treated with serial dilutions of 1 and 2 (or sterile DMSO). After three days, live cells were detected by standard MTT assay, highlighting the appearance of cytotoxic effects above 75 μM for compound 1. […] Cells were treated with different concentration of the 1 and 2 and proliferation was assayed three days later by performing MTT assay. Results were fitted with four-parameter dose-response curve using GraphPad Prism7 software. […] (E) SKBR3 cells were treated with Trastuzumab (25 μg/ml) either alone or in combination with compound 1 or 2 at the indicated doses. After three days, live cells were detected by standard MTT assay. Data are represented as mean ± SD. *p < 0.05, **p < 0.01. […] After three days, live cells were detected by standard MTT assay. […]
(§2) For proliferation assay BT474, SKBR3 and SKH100 cells were seeded in 8 replicates at 1000 cells/well concentration (25% confluency) in four different 96-well cell culture plates and then incubated with increasing concentration of 1 and 2 for 3 days. Changes in proliferation rate were detected by MTT assay (11465007001 Roche, Cell Proliferation Kit I) following manufacturer instruction. […]

[2] = test system: BT474 breast cancer cells; experiment: Cell proliferation assay (MTT), BT474; assay type: cell-based; conditions: Homo sapiens, BT-474, 72 h, BT474, 3 days
Experimental: (§3) For proliferation assay BT474, SKBR3 and SKH100 cells were seeded in 8 replicates at 1000 cells/well concentration (25% confluency) in four different 96-well cell culture plates and then incubated with increasing concentration of 1 and 2 for 3 days. Changes in proliferation rate were detected by MTT assay (11465007001 Roche, Cell Proliferation Kit I) following manufacturer instruction. Sterile DMSO was used as control for non-specific solvent effect on proliferation.

[3] = molecular target: T1, binding between Fl-GST_SH3_p130Cas and MBP_shortPPII_ErbB2 (Homo sapiens, UniProt P56945); experiment: Fluorescence experiment: MBP_shortPPII_ErbB2 added to Fl-GST_SH3_p130Cas/compound complex; conditions: compared to compound 2; MBP_shortPPII_ErbB2 0.1-0.75 μM
T1 construct: fragment of p130Cas protein (aminoacids 3–71); made in house; host or cells: Escherichia coli BL21
T1 sequence (P56945 3-71): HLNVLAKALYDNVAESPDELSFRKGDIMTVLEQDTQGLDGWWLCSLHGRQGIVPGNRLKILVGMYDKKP
Experimental: For fluorescence experiments, GST_SH3_p130Cas was firstly tagged with fluorescein (Fl-GST_SH3_p130Cas) using a methodology described in the literature[34] see Supporting Information). […] Fluorescence emission spectra of Fl-GST_SH3_p130Cas in the presence of 1 and 2 were obtained using the following concentrations: Fl-GST_SH3_p130Cas = 0.7 μM; 1 and 2 = 0–21 μM.
(§4) The variation in fluorescence emission at 518 nm of Fl-GST_SH3_p130Cas was monitored in all experiments.

[4] = molecular target: T2, endogenous p130Cas/ErbB2 complex in BT474 cells (Homo sapiens, UniProt P56945); experiment: Co-immunoprecipitation of p130Cas/ErbB2 in BT474 cells; assay type: cell-based; conditions: BT474 cells pre-treated for 24 hours
T2 construct: endogenous p130Cas/ErbB2 complex in BT474 cells; host or cells: BT474
T2 sequence (P56945 1-870): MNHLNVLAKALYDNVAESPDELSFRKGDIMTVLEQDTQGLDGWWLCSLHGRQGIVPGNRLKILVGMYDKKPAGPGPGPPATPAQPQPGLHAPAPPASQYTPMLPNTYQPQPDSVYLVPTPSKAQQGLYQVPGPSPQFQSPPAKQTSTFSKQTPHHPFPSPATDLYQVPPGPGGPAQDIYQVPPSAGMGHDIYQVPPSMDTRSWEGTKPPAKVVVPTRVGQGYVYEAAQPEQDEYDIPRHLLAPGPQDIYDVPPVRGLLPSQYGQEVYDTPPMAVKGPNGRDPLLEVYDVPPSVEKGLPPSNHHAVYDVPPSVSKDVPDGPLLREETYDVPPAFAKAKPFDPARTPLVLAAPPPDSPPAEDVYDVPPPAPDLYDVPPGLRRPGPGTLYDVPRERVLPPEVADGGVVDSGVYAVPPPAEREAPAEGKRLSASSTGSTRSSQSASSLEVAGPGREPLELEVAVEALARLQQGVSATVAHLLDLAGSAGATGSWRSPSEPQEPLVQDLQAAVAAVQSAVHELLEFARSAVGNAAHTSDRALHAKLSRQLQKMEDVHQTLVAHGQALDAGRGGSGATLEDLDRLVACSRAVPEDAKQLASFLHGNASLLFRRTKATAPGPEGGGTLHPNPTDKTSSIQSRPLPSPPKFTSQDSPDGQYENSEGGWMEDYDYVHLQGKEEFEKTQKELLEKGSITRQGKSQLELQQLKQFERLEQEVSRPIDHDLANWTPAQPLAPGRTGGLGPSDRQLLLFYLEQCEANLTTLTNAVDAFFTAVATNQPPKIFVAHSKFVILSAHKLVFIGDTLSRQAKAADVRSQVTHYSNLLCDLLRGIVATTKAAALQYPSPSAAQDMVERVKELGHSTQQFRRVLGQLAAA
Experimental: GAPDH expression was used as loading control. Data are represented as mean ± SD. **p < 0.01, ***p < 0.001.
To assess whether these compounds could interfere with p130Cas/ErbB2 association in a cellular context, ErbB2-positive BT474 breast cancer cells were pre-treated for 24 hours with 1 or 2 and subjected to co-immunoprecipitation experiments.

[5] = test system: SKH100 Trastuzumab-resistant cells; experiment: Combination with Trastuzumab in SKH100 Trastuzumab-resistant cells (MTT); assay type: cell-based, human; conditions: SKH100, Trastuzumab 100 μg/ml, three days
Experimental: as §1, §2

[6] = test system: ErbB2-negative HEK 293T cells; experiment: Proliferation assay of ErbB2-negative HEK 293T cell line; assay type: cell-based, human; conditions: serial dilutions, three days, MTT
Experimental: Figure S5. Proliferation assay of ErbB2-negative HEK 293T cell line treated with inhibitory […]
To assess whether 1 and 2 could affect cell proliferation independently from p130Cas/ErbB2 inhibition, ErbB2 ErbB2-negative cell line, HEK 293T cells were treated with serial dilutions of 1 and 2 (or sterile DMSO). After three days, live cells were detected by standard MTT assay. […]
any effect even at high concentration.
(1 picture or pasted object on this page, not shown here)

[7] = molecular target: T3, interaction between GST_SH3_p130Cas and MBP_shortPPII_ErbB2 recombinant proteins (Homo sapiens, UniProt P56945); experiment: Competitive ELISA binding assay; assay type: biochemical; conditions: increasing concentration of compound
T3 construct: fragment of p130Cas protein (aminoacids 3–71); made in house; host or cells: Escherichia coli BL21
T3 sequence (P56945 3-71): T1 sequence (P56945 3-71)
Experimental: The day after, washing steps and saturation were performed using PBS and 3%BSA in PBS at room temperature. MBP-tagged ErbB2 purified recombinant proteins and MBP_ctrl (100 nM/well) were added in 100 μl/well of PBS for 2 h. After washing, anti-MBP mouse monoclonal antibody (0.25 μg/ml) was added for 2 h followed by peroxidase conjugated anti-mouse secondary antibody for 1 h.
For validation of inhibitory activity of selected compounds, ELISA binding assay was setup as reported above.

[8] = molecular target: T4, GST_SH3_p130Cas recombinant protein (SH3 domain of p130Cas) (Homo sapiens, UniProt P56945); experiment: Fluorescence quenching of Fl-GST_SH3_p130Cas by compounds; assay type: binding
T4 construct: fragment of p130Cas protein (aminoacids 3–71); made in house; host or cells: Escherichia coli BL21
T4 sequence (P56945 3-71): T1 sequence (P56945 3-71)
Experimental: To experimentally validate the binding of compound 1 and 2 on GST_SH3_p130Cas recombinant protein, fluorescence quenching experiments were performed.
The fluorescence spectra of Fl-GST_SH3_p130Cas in the absence and in the presence of 1 and 2 at different concentrations are shown in Fig. 4C.
All fluorescence spectra were recorded with a Horiba Jobin Yvon Fluorolog3 TCSPC spectrofluorophotometer with 1.0 cm quartz cells For fluorescence experiments, GST_SH3_p130Cas was firstly tagged with fluorescein (Fl-GST_SH3_p130Cas) using a methodology described in the literature[34] see Supporting Information). […] Fluorescence emission spectra of Fl-GST_SH3_p130Cas in the presence of 1 and 2 were obtained using the following concentrations: Fl-GST_SH3_p130Cas = 0.7 μM; 1 and 2 = 0–21 μM.
as §4
Fluorescence data analysis
The obtained spectroscopic data were analysed by a […] non linear least-squares fit procedures reported in Equation 2 2: […]
in which y is the binding derived by measuring fluorescence intensity, [Q] is the concentration of tested compound, Bmax is the maximum amount of protein/compound complex (Fl-GST_SH3_p130Cas/compound) formed at saturation and Kd is the equilibrium dissociation constant. […]

[9] = test system: BT474 cells; experiment: Cytotoxicity assay (MTT); assay type: cell-based, human; conditions: BT474, three days, serial dilutions 250-0.12 μM
Experimental: For cytotoxicity assay BT474 cells were seeded at 5000 cells/well concentration (100% confluency) in a 96-well cell culture plate and incubated with serial dilutions of 1 and 2 compounds (from 250 μM to 0.12 μM). Cytotoxicity was evaluated after 3 days by MTT assay (11465007001 Roche, Cell Proliferation Kit I) following manufacturer instruction.

[10] = test system: SKBR3 breast cancer cells; experiment: Cell proliferation assay (MTT), SKBR3; assay type: cell-based; conditions: Homo sapiens, SK-BR-3, 72 h, SKBR3, 3 days
Experimental: as §3

[11] = test system: ErbB2-positive breast cancer patients; conditions: cited from earlier work
[12] = molecular target: T5, MBP_shortPPII_ErbB2 (human (by the printed accession …, UniProt P04626-1 1103-1194)); experiment: other fluorescence titration; Fl-GST_SH3_p130Cas fixed at 3.0 μM, MBP_shortPPII_ErbB2 0.05–3.0 μM; emission at 518 nm; nonlinear least-squares fit; conditions: both partners purified
T5 construct: ErbB2 cytosolic portion, aminoacids 1103-1194, holds the polyproline type II motif V[RPQPPSP]R at 1145-1153 (isoform 1, P04626-1); the printed residue limits are kept; source: E. coli BL21, purified (Sepharose amylose column), dialyzed against PBS; not shown: MBP, N-terminal, kept

[13] = molecular target: T5, MBP_shortPPII_ErbB2; experiment: far-Western, overlay or dot blot; 1 μl of GST-tagged p130Cas proteins spotted on nitrocellulose; probed with MBP-tagged ErbB2 protein (1 μg/ml) in Interaction Buffer (50 mM Tris-HCl pH7.4, 150 mM NaCl, 1%Triton-X100) at 4 °C overnight; detected with anti-MBP; conditions: both partners purified
[14] = molecular target: T6, MBP_longPPII_ErbB2 (human (by the printed accession …, UniProt P04626-1 1103-1255)); experiment: co-IP; in vitro binding assay: GST-tagged p130Cas and MBP-tagged ErbB2 purified proteins mixed in Interaction Buffer with 1% BSA overnight at 4 °C; immunoprecipitated with anti-MBP and proteinA Sepharose; blot anti-GST; conditions: both partners purified
T6 construct: ErbB2 cytosolic portion, aminoacids 1103-1255 (isoform 1, P04626-1); the printed residue limits are kept; source: E. coli BL21, purified (Sepharose amylose column), dialyzed against PBS; not shown: MBP, N-terminal, kept

[15] = molecular target: T7, MBP_R → D_shortPPII_ErbB2 (human (by the printed accession …, UniProt P04626-1 1103-1194, R to D at position 44 (position 1146 in the original ErbB2 sequence))); experiment: ELISA; direct binding: 100 nM/well of GST_SH3_p130Cas (or mutants) coated in PBS overnight at 4 °C; MBP-tagged ErbB2 proteins (100 nM/well) in PBS for 2 h; detected with anti-MBP; normalized on GST_ctrl and MBP_ctrl; conditions: both partners purified
T7 construct: ErbB2 cytosolic portion, aminoacids 1103-1194, with R to D at position 44 of the fragment (1146 in ErbB2); motif V[DPQPPSP]R; source: E. coli BL21, purified (Sepharose amylose column); not shown: MBP, N-terminal, kept

For `O=C(CNC(=O)NC1CC1)Nc1nnc(C23CC4CC(CC(C4)C2)C3)s1` [Compound 1], the “effect on efficacy of Trastuzumab treatment” value [1] was “significantly enhances”, the EC50 [2] was 52.3 ± 6.38 µM and the “efficiency in preventing binding between Fl-GST_SH3_p130Cas and MBP_shortPPII_ErbB2” value [3] was “more efficient”. For the same molecule, the “association of p130Cas to ErbB2 (co-immunoprecipitation)” value [4] was “reduced the association”, the “effect on sensitivity of resistant cells to Trastuzumab” value [5] was “partially restores” and the “effect on cell proliferation” value [6] was “no significant effect”. The “inhibition of GST_SH3_p130Cas/MBP_shortPPII_ErbB2 association” value [7] was “dose-dependent inhibition” and the Kd [8] was 0.2 µM.

In the case of `NS(=O)(=O)N[C@H]1CCCc2ccccc21` [Compound 2], the “concentration at which cytotoxic effects appear” value [9] is reported as greater than 250 µM, the EC50 [2] is reported as 240 ± 26 µM and the EC50 [10] is reported as 274 ± 27.2 µM. For the same molecule, the “association of p130Cas to ErbB2 (co-immunoprecipitation)” value [4] was “reduced the association”, the “effect on cell proliferation” value [6] was “did not have” and the “inhibition of GST_SH3_p130Cas/MBP_shortPPII_ErbB2 association” value [7] was “dose-dependent inhibition”. It also gave a Kd ([8]; fluorescence quenching of Fl-GST_SH3_p130Cas, emission at 518 nm, nonlinear least-squares fit, read-out: KD (equilibrium dissociation constant)) of 5 µM.

In the case of T-DM1, the “patients in whom treatment failed to induce response” value [11] is given as 57%.

With `N#CC(Cc1ccc(O)cc1)c1ccc(O)cc1` (stereo not drawn) [DPN, Diarylpropionitrile, reference compound] the “inhibition of GST_SH3_p130Cas/MBP_shortPPII_ErbB2 association” value [7] was “no modulation”.

B1: Fl-GST_SH3_p130Cas (domain or fragment, UniProt P56945 3-71, looked up)
chain: T1 sequence (P56945 3-71)
modifications: also: fluorescein (site not given here)
notes: source: E. coli BL21, purified (Sepharose glutathione column), then tagged with fluorescein; not shown: GST, N-terminal, kept
B1 showed a Kd [12] of 0.0407 µM.

B2: GST_SH3_p130Cas (domain or fragment, UniProt P56945 3-71, looked up)
chain: T1 sequence (P56945 3-71)
notes: p130Cas SH3 domain, aminoacids 3-71, amplified from cDNA and cloned in pGEX-4T3; also called SH3 domain of p130Cas; source: E. coli BL21, purified (Sepharose glutathione column), dialyzed against PBS; not shown: GST, N-terminal, kept
B2: binds [13]; binds [14]; binds [15].
